Measurements as given in patent US5116841A, “Imidazoquinoxalines and their preparation and use” (Novo Nordisk A/S, priority 1989, dated 1992).

Tested on: benzodiazepine receptors
Assay: in vivo displacement of 3H-flunitrazepam from brain benzodiazepine receptors in mice
Conditions: female NMR mice, i.p.; 3H-FNM i.v. 15 min after test substance; forebrain 20 min later; dose inhibiting 50% of specific 3H-FNM binding
Description: The pharmaceutical properties of the compounds of the invention can be illustrated by determining their capability for displacing radioactive labelled flunitrazepam from benzodiazepine receptors.
The displacement activity of the compounds of the invention may be found by determining the ED50 value. The ED50 value represents the dose (mg/kg) of a test substance which causes the specific binding of flunitrazepam to benzodiazepine receptors in a living brain to be reduced to 50% of the control value.
Such an in vivo test is carried out as follows:
Principle. Twenty minutes after a dose of ^3 H-flunitrazepam (^3 H-FNM) (200 μCi/kg, i.v.) the amount of specific ^3 H-FNM binding to brain benzodiazepine receptors has reached its maximal value.
Test procedure. Suspensions of test substances (2 mg/ml) are prepared in 5% Duphasol-X (TM Duphar, castor oil-ethylene oxide derivative for emulsifying and solubilizing oil and other water-insoluble substances) by sonification for 10 min using a Branson B15 microtip ultrasonifier (setting 7). Groups of three mice (female, NMR, 18-22 grams) are injected with the test substance at 100 mg/kg intraperitoneally. Fifteen minutes after test substance administration the mice are challenged with 4 μCi intravenously of ^3 H-FNM (70-90) Ci/mole) in 200 μl physiological saline. Twenty minutes after ^3 H-FNM administration mice are sacrificed by decapitation, the forebrains rapidly excised (within 30 sec) and homogenized in 12 ml of icecold 25 mM KH2 PO4, pH 7.1, using an Ultra-Turrax homogenizer fitted with an N 10 shaft. […] The amounts of radioactivity on the filters are determined by conventional scintillation counting. […]
Results. The ED50 value is determined from dose response curves. If only one dose of test substance is administered the ED50 value is calculated as follows, provided that the inhibition of specific binding is within the range of 25-75%: [formula] where Co is specific binding in controls and Cx is specific binding in mice treated with test substance.

Row | Compound | ED50
1 | CC(C)n1c(=O)c2c(-c3cc(C4CC4)on3)ncn2c2ccccc21 [Compound 8, 3-(5-cyclopropyl-3-isoxazolyl)-4,5-dihydro-5-isopropyl-4-oxo-imidazo[1,5-a]quinoxaline] | 1,8 mg/kg
2 | COc1cccc(Cn2c(=O)c3c(-c4cc(C)no4)ncn3c3ccccc32)c1 [Compound 27, 4,5-dihydro-5-(3-methoxybenzyl)-3-(3-methyl-5-isoxazolyl)-4-oxo-imidazo[1,5-a]quinoxaline] | 0,45 mg/kg
3 | CC(C)=CCn1c(=O)c2c(-c3cc(C)no3)ncn2c2ccccc21 [Compound 29, 4,5-dihydro-5-(3,3-dimethylallyl)-3-(3-methyl-5-isoxazolyl)-4-oxo-imidazo[1,5-a]quinoxaline] | 0,37 mg/kg
